Key:
[1] = biological target: T1, Serine/threonine-protein kinase Chk1 (Homo sapiens) (UniProt O14757); test: Inhibition of CHK1 phosphorylation at S296 residue in human FOLFOX-resistant HCT116 cells after 24 hrs by Western blot analysis
T1 sequence (whole entry): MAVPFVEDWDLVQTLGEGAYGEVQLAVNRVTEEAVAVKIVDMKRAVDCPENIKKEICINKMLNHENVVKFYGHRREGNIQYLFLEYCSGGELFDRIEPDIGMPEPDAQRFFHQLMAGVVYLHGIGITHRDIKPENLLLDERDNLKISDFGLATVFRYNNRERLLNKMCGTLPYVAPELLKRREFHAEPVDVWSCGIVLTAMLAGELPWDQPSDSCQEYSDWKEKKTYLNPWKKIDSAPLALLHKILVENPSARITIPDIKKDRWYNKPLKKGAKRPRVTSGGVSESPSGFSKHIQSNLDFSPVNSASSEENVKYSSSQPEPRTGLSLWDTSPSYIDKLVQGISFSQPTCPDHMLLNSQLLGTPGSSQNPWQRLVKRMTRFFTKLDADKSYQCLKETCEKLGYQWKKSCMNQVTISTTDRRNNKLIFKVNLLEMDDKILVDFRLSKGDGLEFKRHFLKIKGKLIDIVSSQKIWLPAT

[2] = biological target: T1, Serine/threonine-protein kinase Chk1 (Homo sapiens); test: Inhibition of CHK1 phosphorylation at S317 residue in human FOLFOX-resistant HT-29 cells after 24 hrs by Western blot analysis
[3] = biological target: Hepatocyte growth factor receptor (Homo sapiens) (UniProt P08581); test: Inhibition of human c-MET assessed as residual activity at 1 uM using KKKSPGEYVNIEFG as substrate by [gamma-33P]-ATP assay relative to control
[4] = biological target: Calcium/calmodulin-dependent protein kinase kinase 1 (Homo sapiens) (UniProt Q8N5S9); test: Inhibition of human CAMKK1 assessed as residual activity at 1 uM using MBP as substrate by [gamma-33P]-ATP assay relative to control
Sequence of Calcium/calmodulin-dependent protein kinase kinase 1 (Homo sapiens) (Q8N5S9 whole entry, looked up): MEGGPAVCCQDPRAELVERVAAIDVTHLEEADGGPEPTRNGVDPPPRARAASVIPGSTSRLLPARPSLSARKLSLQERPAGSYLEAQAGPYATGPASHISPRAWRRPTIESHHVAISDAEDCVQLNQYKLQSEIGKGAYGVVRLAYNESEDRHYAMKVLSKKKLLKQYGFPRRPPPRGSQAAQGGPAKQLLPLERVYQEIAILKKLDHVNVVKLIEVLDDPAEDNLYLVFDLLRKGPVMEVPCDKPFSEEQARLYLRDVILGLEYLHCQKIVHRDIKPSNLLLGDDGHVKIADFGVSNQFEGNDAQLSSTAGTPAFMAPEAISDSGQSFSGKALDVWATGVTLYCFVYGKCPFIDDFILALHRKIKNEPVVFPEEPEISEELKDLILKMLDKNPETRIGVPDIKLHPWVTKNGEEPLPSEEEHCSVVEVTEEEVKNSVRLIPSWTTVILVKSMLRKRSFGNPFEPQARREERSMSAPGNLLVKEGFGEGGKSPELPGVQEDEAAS

[5] = biological target: CDC7/DBF4 (Cell division cycle 7-related protein kinase/Activator of S phase kinase) (Homo sapiens) (UniProt Q9UBU7+O00311); test: Inhibition of human CDC7/DBF4 assessed as residual activity at 1 uM using KTFCGTPEYLAPEVRREPRILSEEEQEMFRDFDYIADWC as substrate by [gamma-33P]-ATP assay relative to control; format: protein-complex assay
Sequence of CDC7/DBF4 (Cell division cycle 7-related protein kinase/Activator of S phase kinase) (Homo sapiens) (O00311 whole entry, looked up): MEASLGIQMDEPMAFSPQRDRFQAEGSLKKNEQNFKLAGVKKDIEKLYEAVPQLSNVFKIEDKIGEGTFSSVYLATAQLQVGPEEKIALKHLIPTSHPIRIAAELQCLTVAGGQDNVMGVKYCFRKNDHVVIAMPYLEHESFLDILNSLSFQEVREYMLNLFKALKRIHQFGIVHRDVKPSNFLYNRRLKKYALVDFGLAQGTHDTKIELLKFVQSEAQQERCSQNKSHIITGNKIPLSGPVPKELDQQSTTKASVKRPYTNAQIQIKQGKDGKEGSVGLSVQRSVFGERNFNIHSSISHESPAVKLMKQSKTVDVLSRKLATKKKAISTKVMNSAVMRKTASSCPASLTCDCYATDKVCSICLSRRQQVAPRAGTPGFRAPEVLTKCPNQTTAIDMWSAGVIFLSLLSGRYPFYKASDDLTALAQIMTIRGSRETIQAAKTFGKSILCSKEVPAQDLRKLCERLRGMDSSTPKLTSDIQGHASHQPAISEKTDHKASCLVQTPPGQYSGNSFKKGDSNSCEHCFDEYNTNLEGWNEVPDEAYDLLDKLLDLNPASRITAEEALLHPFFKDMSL
Sequence of CDC7/DBF4 (Cell division cycle 7-related protein kinase/Activator of S phase kinase) (Homo sapiens) (Q9UBU7 whole entry, looked up): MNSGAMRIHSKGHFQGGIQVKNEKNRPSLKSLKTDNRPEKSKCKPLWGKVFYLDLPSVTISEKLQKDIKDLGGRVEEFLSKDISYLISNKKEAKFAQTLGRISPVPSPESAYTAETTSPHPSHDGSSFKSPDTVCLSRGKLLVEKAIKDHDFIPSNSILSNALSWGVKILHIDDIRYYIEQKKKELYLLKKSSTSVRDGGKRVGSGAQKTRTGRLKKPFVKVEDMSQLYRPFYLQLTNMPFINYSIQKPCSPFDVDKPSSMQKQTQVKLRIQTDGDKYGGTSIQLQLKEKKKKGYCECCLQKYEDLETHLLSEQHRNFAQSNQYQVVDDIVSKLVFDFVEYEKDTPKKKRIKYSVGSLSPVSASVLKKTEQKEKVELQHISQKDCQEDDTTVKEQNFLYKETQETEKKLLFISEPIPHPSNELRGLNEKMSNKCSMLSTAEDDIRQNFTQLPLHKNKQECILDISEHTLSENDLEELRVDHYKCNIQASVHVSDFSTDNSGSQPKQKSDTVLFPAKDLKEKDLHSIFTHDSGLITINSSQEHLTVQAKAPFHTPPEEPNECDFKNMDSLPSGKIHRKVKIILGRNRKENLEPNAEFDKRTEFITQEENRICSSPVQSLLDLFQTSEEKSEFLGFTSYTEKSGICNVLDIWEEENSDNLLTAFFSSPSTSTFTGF

[6] = biological target: Vascular endothelial growth factor receptor 1 (Homo sapiens) (UniProt P17948); test: Inhibition of human FLT1 assessed as residual activity at 1 uM using poly[Glu:Tyr] (4:1) as substrate by [gamma-33P]-ATP assay relative to control
[7] = biological target: Casein kinase II subunit alpha' (Homo sapiens) (UniProt P19784); test: Inhibition of human CK2A2 assessed as residual activity at 1 uM using RRRDDDSDDD as substrate by [gamma-33P]-ATP assay relative to control
Sequence of Casein kinase II subunit alpha' (Homo sapiens) (P19784 whole entry, looked up): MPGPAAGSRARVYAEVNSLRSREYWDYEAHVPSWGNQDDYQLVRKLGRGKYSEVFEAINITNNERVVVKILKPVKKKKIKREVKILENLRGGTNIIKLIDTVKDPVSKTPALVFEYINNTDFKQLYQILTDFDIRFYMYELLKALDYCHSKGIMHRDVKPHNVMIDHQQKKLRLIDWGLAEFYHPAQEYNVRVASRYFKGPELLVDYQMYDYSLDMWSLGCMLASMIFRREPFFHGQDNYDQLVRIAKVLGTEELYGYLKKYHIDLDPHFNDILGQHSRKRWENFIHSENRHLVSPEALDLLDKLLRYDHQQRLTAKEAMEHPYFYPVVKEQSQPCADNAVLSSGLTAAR

[8] = biological target: Serine/threonine-protein kinase DCLK2 (Homo sapiens) (UniProt Q8N568); test: Inhibition of human DCAMKL2 assessed as residual activity at 1 uM using KKLNRTLSFAEPG as substrate by [gamma-33P]-ATP assay relative to control
[9] = biological target: Dual specificity tyrosine-phosphorylation-regulated kinase 1A (Homo sapiens) (UniProt Q13627); test: Inhibition of human DYRK1A assessed as residual activity at 1 uM using RRRFRPASPLRGPPK as substrate by [gamma-33P]-ATP assay relative to control
[10] = biological target: Insulin receptor (Homo sapiens) (UniProt P06213); test: Inhibition of human IR assessed as residual activity at 1 uM using poly[Glu:Tyr] (4:1) as substrate by [gamma-33P]-ATP assay relative to control
[11] = biological target: Serine/threonine-protein kinase STK11 (Homo sapiens) (UniProt Q15831); test: Inhibition of human LKB1 assessed as residual activity at 1 uM using LSNLYHQGKFLQTFCGSPLYRRR as substrate by [gamma-33P]-ATP assay relative to control
Sequence of Serine/threonine-protein kinase STK11 (Homo sapiens) (Q15831 whole entry): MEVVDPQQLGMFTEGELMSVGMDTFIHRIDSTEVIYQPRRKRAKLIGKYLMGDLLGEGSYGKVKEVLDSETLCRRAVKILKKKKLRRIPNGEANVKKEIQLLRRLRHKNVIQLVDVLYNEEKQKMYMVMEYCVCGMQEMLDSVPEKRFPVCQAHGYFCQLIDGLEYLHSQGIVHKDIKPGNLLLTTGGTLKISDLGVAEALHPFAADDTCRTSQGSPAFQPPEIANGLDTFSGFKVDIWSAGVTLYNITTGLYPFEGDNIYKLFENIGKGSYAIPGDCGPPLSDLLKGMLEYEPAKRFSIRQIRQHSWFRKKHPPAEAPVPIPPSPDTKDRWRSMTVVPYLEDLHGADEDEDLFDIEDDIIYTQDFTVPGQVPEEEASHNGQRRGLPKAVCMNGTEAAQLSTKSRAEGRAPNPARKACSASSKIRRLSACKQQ

[12] = biological target: Dual specificity mitogen-activated protein kinase kinase 1 (Homo sapiens) (UniProt Q02750); test: Inhibition of human MEK1 assessed as residual activity at 1 uM using ERK2 as substrate by [gamma-33P]-ATP assay relative to control
Sequence of Dual specificity mitogen-activated protein kinase kinase 1 (Homo sapiens) (Q02750 whole entry): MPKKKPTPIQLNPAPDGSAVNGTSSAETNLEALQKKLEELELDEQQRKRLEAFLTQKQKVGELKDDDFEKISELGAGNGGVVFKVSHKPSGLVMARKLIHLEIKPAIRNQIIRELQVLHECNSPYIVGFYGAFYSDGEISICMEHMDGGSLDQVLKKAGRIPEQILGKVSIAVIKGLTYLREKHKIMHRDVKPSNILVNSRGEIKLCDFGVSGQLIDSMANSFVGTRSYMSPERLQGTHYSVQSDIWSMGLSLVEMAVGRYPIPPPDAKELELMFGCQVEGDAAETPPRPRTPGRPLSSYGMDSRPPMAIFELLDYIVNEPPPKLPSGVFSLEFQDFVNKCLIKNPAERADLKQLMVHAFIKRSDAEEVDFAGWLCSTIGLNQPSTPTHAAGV

[13] = biological target: Myosin light chain kinase 2, skeletal/cardiac muscle (Homo sapiens) (UniProt Q9H1R3); test: Inhibition of human MLCK2 assessed as residual activity at 1 uM using KKLNRTLSFAEPG as substrate by [gamma-33P]-ATP assay relative to control
[14] = biological target: MAP kinase-interacting serine/threonine-protein kinase 2 (Homo sapiens) (UniProt Q9HBH9); test: Inhibition of human MNK2 assessed as residual activity at 1 uM using MBP as substrate by [gamma-33P]-ATP assay relative to control
[15] = biological target: Serine/threonine-protein kinase 26 (Homo sapiens) (UniProt Q9P289); test: Inhibition of human MST4 assessed as residual activity at 1 uM using MBP as substrate by [gamma-33P]-ATP assay relative to control
Sequence of Serine/threonine-protein kinase 26 (Homo sapiens) (Q9P289 2-416 limits assumed): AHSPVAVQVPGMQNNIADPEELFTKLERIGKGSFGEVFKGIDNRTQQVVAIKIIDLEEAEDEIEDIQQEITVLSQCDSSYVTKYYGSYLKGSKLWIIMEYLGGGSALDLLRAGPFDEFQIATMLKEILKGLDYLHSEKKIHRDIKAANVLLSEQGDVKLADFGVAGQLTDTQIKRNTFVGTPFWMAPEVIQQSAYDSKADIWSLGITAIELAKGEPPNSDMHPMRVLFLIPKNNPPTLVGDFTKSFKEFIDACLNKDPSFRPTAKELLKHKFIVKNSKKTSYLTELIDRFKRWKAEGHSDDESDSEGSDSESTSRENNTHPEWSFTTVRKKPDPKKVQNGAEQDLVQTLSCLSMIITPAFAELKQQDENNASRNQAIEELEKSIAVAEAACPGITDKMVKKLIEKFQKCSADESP

[16] = biological target: Protein kinase C alpha type (Homo sapiens) (UniProt P17252); test: Inhibition of human PKCalpha assessed as residual activity at 1 uM using ERMRPRKRQGSVRRRV as substrate by [gamma-33P]-ATP assay relative to control
[17] = biological target: Serine/threonine-protein kinase 33 (Homo sapiens) (UniProt Q9BYT3); test: Inhibition of human STK33 assessed as residual activity at 1 uM using MBP as substrate by [gamma-33P]-ATP assay relative to control
Sequence of Serine/threonine-protein kinase 33 (Homo sapiens) (Q9BYT3 whole entry, looked up): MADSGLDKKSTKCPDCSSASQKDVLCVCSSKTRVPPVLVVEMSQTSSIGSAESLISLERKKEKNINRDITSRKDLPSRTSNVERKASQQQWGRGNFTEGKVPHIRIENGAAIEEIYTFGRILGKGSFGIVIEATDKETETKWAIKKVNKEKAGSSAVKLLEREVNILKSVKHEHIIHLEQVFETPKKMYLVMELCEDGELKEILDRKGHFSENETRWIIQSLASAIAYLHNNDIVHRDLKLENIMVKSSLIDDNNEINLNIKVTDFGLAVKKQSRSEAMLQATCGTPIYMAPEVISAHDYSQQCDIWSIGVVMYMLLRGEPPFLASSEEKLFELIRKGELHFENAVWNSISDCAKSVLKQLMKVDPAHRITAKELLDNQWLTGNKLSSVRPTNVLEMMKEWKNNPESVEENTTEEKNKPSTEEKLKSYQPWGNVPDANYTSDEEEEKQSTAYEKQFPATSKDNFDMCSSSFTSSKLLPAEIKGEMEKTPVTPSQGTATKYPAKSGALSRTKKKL

[18] = biological target: Serine/threonine-protein kinase TAO3 (Homo sapiens) (UniProt Q9H2K8); test: Inhibition of human TAOK3 assessed as residual activity at 1 uM using MBP as substrate by [gamma-33P]-ATP assay relative to control
[19] = biological target: Angiopoietin-1 receptor (Homo sapiens) (UniProt Q02763); test: Inhibition of human TIE2 assessed as residual activity at 1 uM using poly[Glu:Tyr] (4:1) as substrate by [gamma-33P]-ATP assay relative to control
Sequence of Angiopoietin-1 receptor (Homo sapiens) (Q02763 whole entry): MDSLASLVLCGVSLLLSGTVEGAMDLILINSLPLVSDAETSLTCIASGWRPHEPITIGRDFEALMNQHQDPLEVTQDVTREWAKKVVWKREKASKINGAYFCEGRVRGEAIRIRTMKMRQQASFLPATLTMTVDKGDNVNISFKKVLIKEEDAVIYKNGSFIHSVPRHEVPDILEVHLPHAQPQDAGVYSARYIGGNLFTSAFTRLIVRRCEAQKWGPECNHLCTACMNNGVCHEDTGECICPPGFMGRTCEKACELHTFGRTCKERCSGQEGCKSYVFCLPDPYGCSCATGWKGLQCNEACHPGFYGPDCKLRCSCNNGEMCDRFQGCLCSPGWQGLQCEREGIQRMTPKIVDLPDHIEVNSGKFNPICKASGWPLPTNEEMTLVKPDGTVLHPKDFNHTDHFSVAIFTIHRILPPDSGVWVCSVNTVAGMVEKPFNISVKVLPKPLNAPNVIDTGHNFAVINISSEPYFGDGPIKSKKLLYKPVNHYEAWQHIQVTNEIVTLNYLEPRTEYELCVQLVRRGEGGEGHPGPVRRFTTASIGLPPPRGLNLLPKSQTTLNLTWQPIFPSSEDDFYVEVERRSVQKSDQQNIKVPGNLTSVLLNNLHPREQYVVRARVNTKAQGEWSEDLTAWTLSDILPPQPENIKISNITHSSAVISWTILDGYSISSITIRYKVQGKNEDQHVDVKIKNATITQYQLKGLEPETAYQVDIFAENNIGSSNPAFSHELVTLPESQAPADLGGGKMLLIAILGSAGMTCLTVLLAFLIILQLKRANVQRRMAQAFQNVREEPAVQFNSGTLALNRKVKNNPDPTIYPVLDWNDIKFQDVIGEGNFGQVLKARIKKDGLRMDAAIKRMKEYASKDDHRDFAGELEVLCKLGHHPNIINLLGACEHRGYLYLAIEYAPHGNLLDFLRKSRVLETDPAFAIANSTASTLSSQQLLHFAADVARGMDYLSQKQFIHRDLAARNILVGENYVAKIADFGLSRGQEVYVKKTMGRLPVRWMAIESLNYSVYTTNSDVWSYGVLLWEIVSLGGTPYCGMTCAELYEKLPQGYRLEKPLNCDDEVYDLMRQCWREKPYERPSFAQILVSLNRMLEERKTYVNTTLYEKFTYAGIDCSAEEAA

[20] = biological target: Serine/threonine-protein kinase tousled-like 2 (Homo sapiens) (UniProt Q86UE8); test: Inhibition of human TLK2 assessed as residual activity at 1 uM using casein as substrate by [gamma-33P]-ATP assay relative to control
[21] = biological target: Serine/threonine-protein kinase WNK1 (Homo sapiens) (UniProt Q9H4A3); test: Inhibition of human WNK1 assessed as residual activity at 1 uM using MBP as substrate by [gamma-33P]-ATP assay relative to control
[22] = biological target: Mitogen-activated protein kinase kinase kinase 19 (Homo sapiens) (UniProt Q56UN5); test: Inhibition of human YSK4 assessed as residual activity at 1 uM using MBP as substrate by [gamma-33P]-ATP assay relative to control
[23] = biological target: Tyrosine-protein kinase ZAP-70 (Homo sapiens) (UniProt P43403); test: Inhibition of human ZAP70 assessed as residual activity at 1 uM using poly[Glu:Tyr] (4:1) as substrate by [gamma-33P]-ATP assay relative to control

Structure (SMILES) | inhibition [1] | inhibition [2] | Activity [3] | Activity [4] | Activity [5] | Activity [6] | Activity [7] | Activity [8] | Activity [9] | Activity [10] | Activity [11] | Activity [12] | Activity [13] | Activity [14] | Activity [15] | Activity [16] | Activity [17] | Activity [18] | Activity [19] | Activity [20] | also measured
C(=C\c1ccccc1)/C[N+]12CN3CN(CN(C3)C1)C2 | Dose-dependent effect | Dose-dependent effect | 78.7 to 88% | 91.5 to 93.2% | 94 to 94.4% | 96.1 to 97.1% | 122% | 89.2 to 89.7% | 95.8 to 96.4% | 96 to 96.4% | 89.2 to 92.2% | 93 to 94.8% | 91.7 to 94.8% | 93 to 95.7% | 90.7 to 92.2% | 94 to 95.2% | 94.9 to 95.4% | 92.8 to 93.1% | 91.4 to 93.7% | 87.9 to 91.1% | Activity [21]: 93.6 to 94.3%; Activity [22]: 93.8 to 96.3%; Activity [23]: 94.2 to 96.3%
ClC/C=C/C[N+]12CN3CN(CN(C3)C1)C2 | Dose-dependent effect | Dose-dependent effect | 84.9 to 90.2% | 95.5 to 95.7% | 93.8 to 95.8% | 94.7 to 95.5% | 117 to 118% | 92.3 to 92.9% | 95.7 to 95.8% | 95 to 96.7% | 92 to 94.8% | 94.4 to 96.6% | 93.7 to 95.3% | 91.2 to 92.6% | 83.3 to 87.1% | 93.9 to 94.3% | 86.5 to 88.4% | 94.1 to 94.7% | 95.9 to 96% | 91.2 to 91.8% | Activity [21]: 92.5 to 94.9%; Activity [22]: 94 to 94.8%; Activity [23]: 90.6 to 91.5%
